In PubChem BioAssay (NCI):
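The compound was tested at five concentrations on cells cultured in 96-well plates, with a 48-hour exposure period. At the TGI there is no net growth.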

Columns and labels:
Assay in all cases: NCI tumour cell line growth inhibition, 48 h
[1] = system: T-47D breast
[2] = system: MDA-MB-435
[3] = system: OVCAR-3 ovarian
[4] = system: BT-549 breast
[5] = system: HOP-92 NSCLC
[6] = system: COLO 205 colon
[7] = system: M14 melanoma
[8] = system: SK-MEL-28 melanoma
[9] = system: SW-620 colon
[10] = system: SF-295 CNS
[11] = system: SF-539 CNS
[12] = system: HT29 colon
[13] = system: SNB-75 CNS
[14] = system: U251 CNS
[15] = system: NCI-H23 lung
[16] = system: 786-0 renal
[17] = system: UACC-62 melanoma
[18] = system: SNB-19 CNS
[19] = system: EKVX NSCLC
[20] = system: MOLT-4 leukemia
[21] = system: NCI-H522 lung
[22] = system: MCF7 breast
[23] = system: OVCAR-8 ovarian
[24] = system: HCT-15 colon
[25] = system: MALME-3M melanoma
[26] = system: HCT-116 colon
[27] = system: RXF 393 renal
[28] = system: NCI/ADR-RES ovarian
[29] = system: CCRF-CEM leukemia
[30] = system: RPMI-8226 leukemia
[31] = system: IGROV1 ovarian
[32] = system: LOX IMVI melanoma
[33] = system: KM12 colon
[34] = system: K-562 leukemia
[35] = system: CAKI-1 renal
[36] = system: NCI-H460 lung
[37] = system: OVCAR-4 ovarian
[38] = system: HOP-62 NSCLC
[39] = system: NCI-H226 lung
[40] = system: SK-MEL-2 melanoma
[41] = system: A549 NSCLC
[42] = system: SN12C renal
[43] = system: OVCAR-5 ovarian
[44] = system: MDA-N
[45] = system: UO-31 renal
[46] = system: UACC-257 melanoma
[47] = system: SK-MEL-5 melanoma
[48] = system: A498 renal
[49] = system: HCC-2998 colon
[50] = system: MDA-MB-231 breast
[51] = system: SF-268 CNS
[52] = system: DU-145 prostate
[53] = system: HL-60(TB) leukemia
[54] = system: ACHN renal
[55] = system: SR leukemia
[56] = system: SK-OV-3 ovarian
[57] = system: HS 578T breast
[58] = system: TK-10 renal
[59] = system: PC-3 prostate

For `COc1cc(/C=N/c2ccccn2)cc(OC)c1OC`, the TGI [1] was > 100 µM, the TGI [2] was 58.6 µM and the TGI [3] was > 100 µM. For the same compound, the TGI [4] was > 100 µM, the TGI [5] was > 100 µM and the TGI [6] was > 100 µM. The TGI [7] was > 100 µM, the TGI [8] was > 100 µM and the TGI [9] was > 100 µM. The TGI [10] was > 100 µM, the TGI [11] was > 100 µM and the TGI [12] was > 100 µM. For the same compound, the TGI [13] was > 100 µM, the TGI [14] was > 100 µM and the TGI [15] was > 100 µM. For the same compound, the TGI [16] was > 100 µM, the TGI [17] was > 100 µM and the TGI [18] was > 100 µM. The TGI [19] was > 100 µM, the TGI [20] was > 100 µM and the TGI [21] was > 100 µM. For the same compound, the TGI [22] was > 100 µM, the TGI [23] was > 100 µM and the TGI [24] was > 100 µM. The TGI [25] was > 100 µM, the TGI [26] was > 100 µM and the TGI [27] was > 100 µM. The TGI [28] was > 100 µM, the TGI [29] was > 100 µM and the TGI [30] was > 100 µM. For the same compound, the TGI [31] was > 100 µM, the TGI [32] was > 100 µM and the TGI [33] was > 100 µM. For the same compound, the TGI [34] was > 100 µM, the TGI [35] was > 100 µM and the TGI [36] was > 100 µM. For the same compound, the TGI [37] was > 100 µM, the TGI [38] was > 100 µM and the TGI [39] was > 100 µM. For the same compound, the TGI [40] was > 100 µM, the TGI [41] was > 100 µM and the TGI [42] was > 100 µM. For the same compound, the TGI [43] was > 100 µM, the TGI [44] was > 59.4 µM and the TGI [45] was > 100 µM. For the same compound, the TGI [46] was > 100 µM, the TGI [47] was > 100 µM and the TGI [48] was > 100 µM. For the same compound, the TGI [49] was > 100 µM, the TGI [50] was > 100 µM and the TGI [51] was > 100 µM. For the same compound, the TGI [52] was > 100 µM, the TGI [53] was > 100 µM and the TGI [54] was > 100 µM. The TGI [55] was > 100 µM, the TGI [56] was > 100 µM and the TGI [57] was > 100 µM.
In the case of `CCOC(=O)CCC(NC(=O)C(N)c1ccc([N+](=O)[O-])cc1)C(=O)NC(CCC(=O)OCC)C(=O)OCC` (centres undefined), the TGI [1] is reported as > 100 µM, the TGI [4] is reported as > 100 µM and the TGI [5] is reported as > 100 µM. For the same compound, the TGI [6] was > 100 µM, the TGI [7] was > 100 µM and the TGI [8] was > 100 µM. For the same compound, the TGI [9] was > 100 µM, the TGI [12] was > 100 µM and the TGI [13] was > 100 µM. For the same compound, the TGI [14] was > 100 µM, the TGI [15] was > 100 µM and the TGI [16] was > 100 µM. For the same compound, the TGI [17] was > 100 µM, the TGI [18] was > 100 µM and the TGI [19] was > 100 µM. For the same compound, the TGI [20] was > 100 µM, the TGI [22] was > 100 µM and the TGI [23] was > 100 µM. The TGI [24] was > 100 µM, the TGI [25] was > 100 µM and the TGI [26] was > 100 µM. For the same compound, the TGI [30] was > 100 µM, the TGI [31] was > 100 µM and the TGI [33] was > 100 µM. For the same compound, the TGI [34] was > 100 µM, the TGI [36] was > 100 µM and the TGI [38] was > 100 µM. For the same compound, the TGI [39] was > 100 µM, the TGI [40] was > 100 µM and the TGI [41] was > 100 µM. For the same compound, the TGI [42] was > 100 µM, the TGI [58] was > 100 µM and the TGI [43] was > 100 µM. For the same compound, the TGI [44] was > 100 µM, the TGI [45] was > 100 µM and the TGI [46] was > 100 µM. For the same compound, the TGI [47] was > 100 µM, the TGI [48] was > 100 µM and the TGI [49] was > 100 µM. The TGI [50] was > 100 µM, the TGI [59] was > 100 µM and the TGI [53] was > 100 µM. The TGI [54] was > 100 µM, the TGI [55] was > 100 µM and the TGI [57] was > 100 µM.
`Cc1ccc(OCC2=NC3S/C(=C/c4ccc([N+](=O)[O-])o4)C(=O)N3N2)cc1` (centres undefined) gave a TGI [1] of 5.39 µM, a TGI [2] of 19.8 µM and a TGI [3] of 4.12 µM. It also gave a TGI [4] of 25.1 µM, a TGI [5] of 8.8 µM and a TGI [6] of 11.6 µM. It also gave a TGI [7] of 23.6 µM, a TGI [8] of 30.5 µM and a TGI [9] of 15 µM. The TGI [10] was 30.4 µM, the TGI [11] was 4.3 µM and the TGI [12] was 22.6 µM. For the same compound, the TGI [13] was 30 µM, the TGI [14] was 29.5 µM and the TGI [15] was 28.8 µM. The TGI [16] was 23.7 µM, the TGI [18] was 32.2 µM and the TGI [19] was 24.5 µM. For the same compound, the TGI [20] was 6.94 µM, the TGI [21] was 4.37 µM and the TGI [23] was 14.3 µM. The TGI [24] was 7.04 µM, the TGI [25] was 7.94 µM and the TGI [26] was 15.9 µM. It also gave a TGI [27] of 28.5 µM, a TGI [28] of 33.2 µM and a TGI [29] of 35.3 µM. It also gave a TGI [30] of 6.16 µM, a TGI [31] of 22.5 µM and a TGI [32] of 13.3 µM. It also gave a TGI [33] of 32 µM, a TGI [34] of 3.98 µM and a TGI [35] of 32 µM. For the same compound, the TGI [36] was 41.6 µM, the TGI [37] was 7.86 µM and the TGI [38] was 33.7 µM. It also gave a TGI [39] of 33.3 µM, a TGI [40] of 31.7 µM and a TGI [41] of 38.9 µM. The TGI [42] was 37 µM, the TGI [58] was 30.1 µM and the TGI [43] was 35.2 µM. It also gave a TGI [44] of 20.7 µM, a TGI [45] of 34.8 µM and a TGI [46] of 25.5 µM. It also gave a TGI [47] of 21.3 µM, a TGI [48] of 37.8 µM and a TGI [50] of 26.6 µM. It also gave a TGI [51] of 14.9 µM, a TGI [52] of 20.5 µM and a TGI [59] of 18.2 µM. For the same compound, the TGI [53] was 5.34 µM, the TGI [54] was 3.14 µM and the TGI [55] was 11.4 µM. It also gave a TGI [56] of 29.9 µM and a TGI [57] of 89 µM.
With `COc1cc(C(c2cccc3ccccc23)N2C(=O)CCC2C(=O)O)cc(OC)c1OC` (centres undefined) the TGI [1] was > 100 µM, the TGI [2] was > 100 µM and the TGI [3] was > 100 µM. For the same compound, the TGI [4] was > 100 µM, the TGI [5] was > 100 µM and the TGI [6] was > 100 µM. The TGI [7] was > 100 µM, the TGI [8] was > 100 µM and the TGI [9] was > 100 µM. For the same compound, the TGI [10] was > 100 µM, the TGI [11] was > 100 µM and the TGI [12] was > 100 µM. For the same compound, the TGI [13] was > 100 µM, the TGI [14] was > 100 µM and the TGI [15] was > 100 µM. For the same compound, the TGI [16] was > 100 µM, the TGI [17] was > 100 µM and the TGI [18] was > 100 µM. For the same compound, the TGI [19] was > 100 µM, the TGI [20] was > 100 µM and the TGI [21] was > 100 µM. For the same compound, the TGI [22] was > 100 µM, the TGI [23] was > 100 µM and the TGI [24] was > 100 µM. The TGI [25] was > 100 µM, the TGI [26] was > 100 µM and the TGI [27] was > 100 µM. For the same compound, the TGI [28] was > 100 µM, the TGI [29] was > 100 µM and the TGI [30] was > 100 µM. The TGI [31] was > 100 µM, the TGI [33] was > 100 µM and the TGI [34] was > 100 µM. The TGI [35] was > 100 µM, the TGI [36] was > 100 µM and the TGI [37] was > 100 µM. For the same compound, the TGI [38] was > 100 µM, the TGI [39] was > 100 µM and the TGI [40] was > 100 µM. For the same compound, the TGI [41] was > 100 µM, the TGI [42] was > 100 µM and the TGI [43] was > 100 µM. For the same compound, the TGI [44] was > 100 µM, the TGI [45] was > 100 µM and the TGI [46] was > 100 µM. For the same compound, the TGI [47] was > 100 µM, the TGI [48] was > 100 µM and the TGI [50] was > 100 µM. For the same compound, the TGI [51] was > 100 µM, the TGI [52] was > 100 µM and the TGI [59] was > 100 µM. The TGI [53] was > 100 µM, the TGI [54] was > 100 µM and the TGI [55] was > 100 µM. For the same compound, the TGI [56] was > 100 µM and the TGI [57] was > 100 µM.
